Test results: US20240228542A1, “LYTIC DOMAIN FUSION CONSTRUCTS, CHECKPOINT INHIBITORS, AND METHODS OF MAKING AND USING SAME” (A28 Therapeutics Inc., priority 2020, published 2024)
pIC50: −log10 of the molar value. Several values for one entry are separate records, joined by “and”; a condition that tells them apart may be missing. Identical values can stand only once. Entries after “also recorded” stand apart in the source; their conditions may differ. Like-named read-outs stand apart in the source and are kept apart here.

Key:
[1] = tested on: MCF-7 cells; assay: Time course of cytotoxicity in MCF-7 cells (MTT); type: cell-based, human; conditions: for incubation time to maximal efficacy: MCF-7 cells
Excerpt: (§1) Membranes of non-cancerous cell lines are neutral and are resistant to cytolytic peptides, in contrast to cancer cell lines, which have a high phosphatidic acid content in their outer membrane.
(§2) The melanoma cell line studied was MDA-MB-435S (estrogen receptor alpha negative), breast cancer cell lines MCF-7 and T47D (estrogen receptor alpha positive), ovarian cancer cell lines (OVCAR-3 and SKOV-3), prostate cancer (LNCaP), the non-malignant breast epithelial cell line MCF-10A and the mouse fibroblast cell line NIH:3T3.
(§3) Cells were seeded into 96 well plates at a density of 10,000 cells/well. […] Controls contained USP saline or 0.1% TritonX-100™ as reference for 0 and 100% cell death, respectively. Incubations were terminated by removing the culture media after 2 minutes, 5 minutes, 15 minutes, 30 minutes, 1 hour, 2 hours, 6 hours, 24 and 48 hours. Cell viability was assessed through formazan conversion assay (MTT assay, (CellTiter 96 Aqueous One, Promega # G3582). Formazan conversion was determined using a BioRad Benchmark Plus microplate spectrophotometer dual wavelengths at 490/630 nm at room temperature).
(§4) Data were calculated as fraction of absorption in TritonX-100™ containing wells representing 100% cell death versus 0% cell death in saline containing wells. Cytotoxicity was determined as ICso using GraphPad Prism version 5.01 for Windows, GraphPad Software, San Diego California USA according to the program for sigmoidal dose response with variable slope using constraint values of 0 and 100%. 4 wells of each individual set of two 96 well plates were compared and analyzed. Statistical analysis for significance was determined by a two-tailed Student's T-test.

[2] = tested on: OVCAR-3 cells; type: cell-based, human; conditions: for incubation time to maximal efficacy: OVCAR-3 cells
Excerpt: as §1, §2, §3, §4

[3] = tested on: SKOV-3 cells; assay: Time course of cytotoxicity in SKOV-3 cells (MTT); type: cell-based, human
Excerpt: as §1, §2, §3, §4

[4] = tested on: NIH:3T3; type: cell-based, mouse; conditions: noncancerous cell line 3T3
Protocol: as §2, §3
as §4, with “Statistical analysis for significance was determined by a two-tailed Student's T-test.” left out

[5] = tested on: MDA-MB-435S xenograft; assay: MDA-MB-435S xenograft, minimal effective dose, once weekly; type: in vivo, Nu/Nu mice
Protocol: To determine the minimal effective dose necessary to reduce MDA-MB-435S xenograft weights in a single dose regimen, Nu/Nu female mice, outbred strain, age 5 weeks (Charles River), were injected (s.c.) into the interscapular region with a MDA-MB-435S (passage #249)/Matrigel suspension (2.4×10^6 cells/mouse) [Leuschner 2006].
Each group consisted of 16 mice, which were injected once a week for 3 weeks. A group of 16 mice was sacrificed at the time of treatment start to serve as baseline. Saline injections served as control groups. During the entire study tumor volumes were recorded twice weekly.
Treatment started on day 16 after tumor cell injection when the tumors were established and continued on days 23 and 30. All remaining mice were necropsied 37 days after tumor cell injection.
Treatment response was determined by tumor weights and tumor weight change at necropsy compared to saline controls and untargeted CLIP71 treatment. Primary tumors were collected, weighed and prepared for histological evaluation in formalin fixation with 10% PBS buffered formalin. Statistical evaluation of data sets were conducted in GraphPad Prizm 4 and significance calculated by Wilcoxon signed-rank test.

[6] = tested on: OVCAR-3 xenograft; assay: OVCAR-3 ovarian cancer xenograft; type: in vivo, Nu/Nu mice; conditions: for tumor volume: CLIP71 2 mg/kg, cisplatinum 10 mg/kg
Protocol: In brief, Nu/Nu female mice, inbred strain, age 5 weeks (Harlan-Sprague Dawley) were injected subcutaneously with a NIH:OVCAR-3 cells/Matrigel suspension (4.6×10^6 cells/mouse). Treatment was started on day 33 after tumor cell injection when the tumors were established and continued on days 41 and 47. The doses for the 3 weekly injections were 0.02, 0.2 and 2 mg/kg body weight, given as a single bolus intravenous injection via lateral tail vein administered once a week for three weeks on days 33, 41 and 47. Necropsies were conducted on day 52. Data are presented as mean […]SEM. Arrows show dosing.
A group of 9 tumor bearing mice was sacrificed on day 33 and served as baseline group. All mice were necropsied 51-52 days after tumor cell injection. Tumor volumes and bodyweights were recorded twice weekly during the study, as well as overall veterinarian examination of mice was conducted.
(§5) Primary tumors, liver, kidney, pancreas, heart, lung, and spleen were collected, fixed in formalin and prepared for histological evaluation. Tumor weights were measured at necropsy, part of the tumors were frozen at −80° C. for LH/CG and LHRH receptor assay determination.
As a biomarker for drug activity, CA 125 was determined in serum, collected from each individual mouse at necropsy using a Enzyme Linked Immunoassay for quantitative determination of ovarian cancer antigen CA125 (Assay kit Genway, Biotech, Inc. San Diego, CA, Catalog #40-052-115009, #BC-1013 according to the manufacturer).
LHRH receptor levels were assessed from formalin fixed tumors. Quantitative immunoperoxidase image analysis was conducted with the Ventana Image Analysis System (VIAS) adjunctive computer assisted image analysis system functionally connected to an interactive microscope (Axio Imager). The quantitative analysis was conducted with the program for quantification of Her2/neu receptor that included morphometric and colorimetric analysis. Receptor status results were reported as percentage of cells showing positive staining of the LHRH receptors under the following criteria: 0 non-immunoreactive, 1+: 1-25% positive, 2+: 26-50% positive, 3+: 51-75% positive cells.

[7] = tested on: PC-3 xenograft; assay: PC-3 prostate cancer xenograft; type: in vivo, Nu/Nu mice; conditions: for tumor growth: PC-3 xenograft, CLIP71 5 mg/kg
Protocol: In brief, Nu/Nu male mice, outbred strain, age 6 weeks (Charles River) were injected subcutaneously with a PC-3 cells/Matrigel suspension (1×10^6 cells/mouse). Treatment was started on day 15 after tumor cell injection when the tumors were established and continued on days 22 and 29. The doses for the 3 weekly injections were 2, 0.2 and 0.02 mg/kg body weight, given as a bolus single intravenous injection via lateral tail vein.
A group of 12 tumor bearing mice was sacrificed on day 15 and served as baseline group. All mice were necropsied 35 and 36 days after tumor cell injection. Tumor volumes and bodyweights were recorded twice weekly during the study, as well as overall veterinarian examination of mice was conducted.
as §5

[8] = MDA-MB-435S.luc, 1 × 3 wk, 22 d, minimal effective dose study

KFAKFAKKFAKFAKKFAK [Phor18, reference compound]
incubation time to maximal efficacy [1]: 24 h
incubation time to maximal efficacy [2]: 24 h
pIC50 ([3]; SKOV-3 (SKOV-3 and HEK 1A), 24 hours, read-out: IC50): 4.93
pIC50 ([3]; SKOV-3 (p40), listed as CLIP71, read-out: IC50 with increasing incubation time): 4.07 and 4.02 and 4.28 and 4.30
pIC50 [4]: < 4.40
tumor volumes and tumor weights ([5]; CLIP71 plus LHRH 0.2/0.122 mg/kg): did not decrease tumor weights
tumor weights ([6]; OVCAR-3 xenograft at necropsy): not effective in reducing tumor weights
tumor volume ([6]; OVCAR-3 xenograft): tumor growth was observed; also recorded: no reduction in tumor volume
tumor growth [7]: tumor growth was observed

KFAKFAKKFAKFAKKFAKQHWSYGLRPG [Phor18-LHRH]
pIC50 ([1]; MCF-7 (p152), read-out: IC50 with increasing incubation time): 5.47 to 5.74
incubation time to maximal efficacy [1]: 1 h and 0.5 to 1 h
pIC50 ([2]; OVCAR-3 (p47), read-out: IC50 with increasing incubation time): 6.30
incubation time to maximal efficacy [2]: 1 h and 0.5 to 1 h
incubation time to maximal efficacy ([3]; SKOV-3 cells): 24 h
pIC50 [4]: < 5.00
Median Tumor Weight vs Baseline p < 0.05 (lowest dose) [5, 8]: 2 µg/kg
Median Tumor Weight vs Saline P < 0.05 (lowest dose) [5, 8]: 0.2 µg/kg
Remarks / histology of tumors ([5]; Phor18-LHRH at doses as low as 0.0002 mg/kg, CLIP71/LHRH 0.2/0.122 mg/kg): significant necrosis
lowest concentration with tumor volume reduction compared to baseline ([6]; 42 days after tumor cell injection, p<0.001): 0.2 mg/kg bodyweight
Median Tumor Weight vs Baseline p < 0.05 (doses) ([6]; OVCAR-3, 1 × 3 wk, 20 d): 200 µg/kg
Remarks / histology of treated tumors ([6]; OVCAR-3 xenograft): significant necrosis
tumor volume ([6]; OVCAR-3 xenograft): Tumor volumes decreased
CA125 secretion (serum) ([6]; greatest at 0.2 and 2 mg/kg (p<0.0002 vs saline)): reduced
reduction of LHRH receptor levels ([6]; treated tumors, immunoperoxidase image analysis): 1-2 score points
lowest concentration with tumor volume reduction compared to saline controls and CLIP71 ([7]; 22 days after tumor cell injection, p<0.001): 0.002 mg/kg bodyweight
Median Tumor Weight vs Baseline p < 0.05 (doses) ([7]; PC-3, 1 × 3 wk, 21 d): 0.2
tumor growth [7]: effective in arresting tumor growth
